Experimental data reported in US4311699A, “Aminoacid derivatives of cephalosporin compounds” (priority 1980, dated 1982).
In brackets after ≈: the same amount, converted by molar mass.

Tests used:
Assay in all cases: in vitro antibacterial activity, minimal inhibitory concentration
Type in all cases: cell-based
Pseudomonas BRK 12-4-4 = details: Pseudomonas BRK 12-4-4, in vitro; for MIC: BRK1244
Description: (§1) The compounds of the invention are new chemical compounds that are used as pharmacological agents and especially as broad spectrum antibacterial agents. They are active in vitro against strains of both gram-positive and gram-negative bacteria.
(§2) Minimal Inhibitory Concentration (μg/ml)

Entero. cloacae = details: for MIC: Enterobacter cloacae
Description: as §1, §2

E. coli Brig = details: for MIC: Escherichia coli
Description: as §1, §2

Staph. aureus S18733 = details: for MIC: Staphylococcus aureus
Description: as §1, §2

Serr. marces. = system: Serr. marces.
Description: as §1, §2

Klebs. pneu. = system: Klebs. pneu.
Description: as §1, §2

Staph. aureus UC-76 = details: Staph. aureus UC-76, in vitro; for MIC: Staphylococcus aureus, UC76
Description: as §1, §2

Prot. vulg. = system: Prot. vulg.
Description: as §1, §2

Pseudomonas #28 = details: Pseudomonas #28, in vitro; for MIC: read-out: Minimal Inhibitory Concentration
Description: as §1, §2

E. coli Vogel = details: for MIC: Escherichia coli
Description: as §1, §2

Strep. fec. = system: Strep. fec.
Description: as §1, §2

Pseudomonas UI 18 = details: Pseudomonas UI 18, in vitro; for MIC: UI18
Description: as §1, §2

SMILES	MIC (Pseudomonas BRK 12-4-4) [µg/mL]	MIC (Entero. cloacae) [µg/mL]	MIC (E. coli Brig) [µg/mL]	MIC (Staph. aureus S18733) [µg/mL]	MIC (Serr. marces.) [µg/mL]	MIC (Klebs. pneu.) [µg/mL]	MIC (Staph. aureus UC-76) [µg/mL]	MIC (Prot. vulg.) [µg/mL]	MIC (Pseudomonas #28) [µg/mL]	MIC (E. coli Vogel) [µg/mL]	MIC (Strep. fec.) [µg/mL]	MIC (Pseudomonas UI 18) [µg/mL]	other results
CC(=O)NC(C)C(=O)Nc1ccc(-c2ncc(C(=O)N[C@@H](C(=O)NC3C(=O)N4C(C(=O)O)=C(CSc5nnnn5C)CSC34)c3ccccc3)c(O)n2)cc1 (mixture of isomers) [Example 24, N-[2-[4-(N-Acetyl-DL-alanylamino)phenyl]-4-hydroxy-5-pyrimidinylcarbonyl]-7-[D-2-amino-2-phenylacetamido]-3-[[(1-methyl-1H-tetrazol-5-yl)thio]methyl]-3-cephem-4-carboxylic acid]	12.5	12.5	12.5	3.1	50	1.6	1.6	25	6.3	3.1	50	6.3	–
CC(=O)NC(C)C(=O)Nc1ccc(-c2ncc(C(=O)N[C@@H](C(=O)NC3C(=O)N4C(C(=O)O)=C(CSc5nnnn5C)CSC34)c3ccc(O)cc3)c(O)n2)cc1 (mixture of isomers) [Example 32, N-[2-[4-(N-Acetyl-DL-alanylamino)phenyl]-4-hydroxy-5-pyrimidinylcarbonyl]-7-[D-2-amino-2-(4-hydroxyphenyl)acetamido]-3-[[(1-methyl-1H-tetrazol-5-yl)thio]methyl]-3-cephem-4-carboxylic acid]	6.3	6.3	6.3	6.3	> 50	1.6	3.1	12.5	3.1	1.6	50	6.3	–
CC(=O)NC(C)C(=O)Nc1ccc(-c2ncc(C(=O)N[C@@H](C(=O)NC3C(=O)N4C(C(=O)O)=C(CSc5nnnn5CC(=O)O)CSC34)c3ccccc3)c(O)n2)cc1 (mixture of isomers) [Example 35, N-[2-[4-(N-Acetyl-DL-alanylamino)phenyl]-4-hydroxy-5-pyrimidinylcarbonyl]-7-[D-2-phenylacetamido-3-[[(1-carboxymethyl-1H-tetrazol-5-yl)thio]methyl]-3-cephem-4-carboxylic acid]	12.5	6.3	6.3	25	50	6.3	12.5	3.1	6.3	3.1	> 50	12.5	–
CC(=O)NC(C)C(=O)Nc1ccc(-c2ncc(C(=O)N[C@@H](C(=O)NC3C(=O)N4C(C(=O)O)=C(CSc5nnc(C)s5)CSC34)c3ccccc3)c(O)n2)cc1 (mixture of isomers) [Example 40, N-[2-[4-(N-Acetyl-DL-alanylamino)phenyl]-4-hydroxy-5-pyrimidinylcarbonyl]-7-[D-2-amino-2-phenylacetamido]-3-[[(5-methyl-1,3,4-thiadiazoyl-2-thio]methyl]-3-cephem-4-carboxylic acid]	12.5	25	12.5	3.1	50	3.1	0.4	50	12.5	3.1	25	6.3	–
CC(=O)N[C@H](C)C(=O)Nc1ccc(-c2ncc(C(=O)N[C@@H](C(=O)N[C@@H]3C(=O)N4C(C(=O)O)=C(COC(C)=O)CS[C@H]34)c3ccccc3)c(O)n2)cc1 [Example 1, N-[2-[4-(N-Acetyl-D-alanylamino)phenyl]-4-hydroxy-5-pyrimidinyl-carbonyl]-7-[D-2-amino-2-phenylacetamido]-3-acetoxymethyl-3-cephem-4-carboxylic acid]	3.1 (≈ 4.24 µM)	50 (≈ 68.3 µM)	25 (≈ 34.2 µM)	3.1 (≈ 4.24 µM)	12.5 (≈ 17.1 µM)	200 (≈ 273 µM)	0.8 (≈ 1.09 µM)	12.5 (≈ 17.1 µM)	3.1 (≈ 4.24 µM)	6.3 (≈ 8.61 µM)	50 (≈ 68.3 µM)	3.1 (≈ 4.24 µM)	–
CC(=O)NC(C)(C)C(=O)Nc1ccc(-c2ncc(C(=O)N[C@@H](C(=O)N[C@@H]3C(=O)N4C(C(=O)O)=C(COC(C)=O)CS[C@H]34)c3ccccc3)c(O)n2)cc1 [Example 2, N-[2-[4-(N-Acetyl-alpha-aminoisobutyrylamino)phenyl)-4-hydroxy-5-pyrimidinylcarbonyl]-7-[D-2-amino-2-phenylacetamido]-3-acetoxymethyl-3-cephem-4-carboxylic acid]	6.3 (≈ 8.45 µM)	50 (≈ 67 µM)	50 (≈ 67 µM)	12.5 (≈ 16.8 µM)	> 50	25 (≈ 33.5 µM)	3.1 (≈ 4.16 µM)	25 (≈ 33.5 µM)	1.6 (≈ 2.15 µM)	25 (≈ 33.5 µM)	> 50	3.1 (≈ 4.16 µM)	–
CC(=O)NCCC(=O)Nc1ccc(-c2ncc(C(=O)N[C@@H](C(=O)N[C@@H]3C(=O)N4C(C(=O)O)=C(COC(C)=O)CS[C@H]34)c3ccccc3)c(O)n2)cc1 [Example 3]	12.5 (≈ 17.1 µM)	50 (≈ 68.3 µM)	25 (≈ 34.2 µM)	6.3 (≈ 8.61 µM)	< 50	12.5 (≈ 17.1 µM)	1.6 (≈ 2.19 µM)	12.5 (≈ 17.1 µM)	6.3 (≈ 8.61 µM)	12.5 (≈ 17.1 µM)	50 (≈ 68.3 µM)	6.3 (≈ 8.61 µM)	–
CC(=O)N[C@@H](C)C(=O)Nc1ccc(-c2ncc(C(=O)N[C@@H](C(=O)N[C@@H]3C(=O)N4C(C(=O)O)=C(COC(C)=O)CS[C@H]34)c3ccccc3)c(O)n2)cc1 [Example 10, N-[2-[4-(N-Acetyl-L-alanylamino)phenyl]-4-hydroxy-5-pyrimidinylcarbonyl]-7-[D-2-amino-2-phenylacetamido]-3-acetoxy-methyl-3-cephem-4-carboxylic acid]	12.5 (≈ 17.1 µM)	50 (≈ 68.3 µM)	25 (≈ 34.2 µM)	6.3 (≈ 8.61 µM)	> 50	25 (≈ 34.2 µM)	3.1 (≈ 4.24 µM)	25 (≈ 34.2 µM)	6.3 (≈ 8.61 µM)	12.5 (≈ 17.1 µM)	50 (≈ 68.3 µM)	6.3 (≈ 8.61 µM)	–
CC(=O)N[C@H](C)C(=O)Nc1ccc(-c2ncc(C(=O)N[C@@H](C(=O)N[C@@H]3C(=O)N4C(C(=O)O)=C(COC(C)=O)CS[C@H]34)c3ccc(O)cc3)c(O)n2)cc1 [Example 11, N-[2-[4-(N-Acetyl-D-alanylamino)phenyl]-4-hydroxy-5-pyrimidinylcarbonyl]-7-[D-2-amino-2-(4-hydroxyphenyl)-acetamido]-3-acetoxymethyl-3-cephem-4-carboxylic acid]	6.3 (≈ 8.43 µM)	50 (≈ 66.9 µM)	50 (≈ 66.9 µM)	25 (≈ 33.4 µM)	> 50	25 (≈ 33.4 µM)	6.3 (≈ 8.43 µM)	12.5 (≈ 16.7 µM)	3.1 (≈ 4.15 µM)	6.3 (≈ 8.43 µM)	50 (≈ 66.9 µM)	6.3 (≈ 8.43 µM)	–
CC(=O)OCC1=C(C(=O)O)N2C(=O)C(NC(=O)[C@H](NC(=O)c3cnc(-c4ccc(NC(=O)[C@@H]5C[C@@H](O)CN5C(C)=O)cc4)nc3O)c3ccccc3)[C@H]2SC1 (stereo partly drawn) [Example 15, N-[2-[4-(N-Acetyl-L-hydroxyprolylamino)phenyl]-4-hydroxy-5-pyrimidinylcarbonyl]-7-[D-2-amino-2-phenylacetamido]-3-acetoxymethyl-3-cephem-4-carboxylic acid]	–	–	–	–	–	–	–	–	–	–	–	–	Minimal Inhibitory Concentration (Pseudomonas BRK 12-4-4): 12.5 µg/mL; Minimal Inhibitory Concentration (Entero. cloacae): > 50 µg/mL; Minimal Inhibitory Concentration (E. coli Brig): 50 µg/mL; Minimal Inhibitory Concentration (Staph. aureus S18733): 6.3 µg/mL; Minimal Inhibitory Concentration (Serr. marces.): > 50 µg/mL; Minimal Inhibitory Concentration (Klebs. pneu.): 12.5 µg/mL; Minimal Inhibitory Concentration (Staph. aureus UC-76): 1.6 µg/mL; Minimal Inhibitory Concentration (Prot. vulg.): 50 µg/mL; Minimal Inhibitory Concentration (Pseudomonas #28): 3.1 µg/mL; Minimal Inhibitory Concentration (E. coli Vogel): 6.3 µg/mL; Minimal Inhibitory Concentration (Strep. fec.): 25 µg/mL; Minimal Inhibitory Concentration (Pseudomonas UI 18): 3.1 µg/mL
CC(=O)NCCCC(=O)Nc1ccc(-c2ncc(C(=O)N[C@@H](C(=O)N[C@@H]3C(=O)N4C(C(=O)O)=C(COC(C)=O)CS[C@H]34)c3ccccc3)c(O)n2)cc1 [Example 16, N-[2-[4-(N-Acetyl-γ-aminobutyrylamino)phenyl]-4-hydroxy-5-pyrimidinylcarbonyl]-7-[D-2-amino-2-phenylacetamido]-3-acetoxy-methyl-3-cephem-4-carboxylic acid]	12.5 (≈ 16.8 µM)	25 (≈ 33.5 µM)	50 (≈ 67 µM)	3.1 (≈ 4.16 µM)	> 50	12.5 (≈ 16.8 µM)	0.8 (≈ 1.07 µM)	25 (≈ 33.5 µM)	6.3 (≈ 8.45 µM)	6.3 (≈ 8.45 µM)	25 (≈ 33.5 µM)	12.5 (≈ 16.8 µM)	–
CC(=O)N[C@@H](C(=O)Nc1ccc(-c2ncc(C(=O)N[C@@H](C(=O)N[C@@H]3C(=O)N4C(C(=O)O)=C(COC(C)=O)CS[C@H]34)c3ccccc3)c(O)n2)cc1)C(C)C [Example 17, N-[2-[4-(N-Acetyl-D-valylamino)phenyl]-4-hydroxy-5-pyrimidinylcarbonyl]-7-[D-2-amino-2-phenylacetamido]-3-acetoxymethyl-3-cephem-4-carboxylic acid]	12.5 (≈ 16.5 µM)	25 (≈ 32.9 µM)	12.5 (≈ 16.5 µM)	6.3 (≈ 8.29 µM)	> 50	12.5 (≈ 16.5 µM)	1.6 (≈ 2.11 µM)	25 (≈ 32.9 µM)	6.3 (≈ 8.29 µM)	6.3 (≈ 8.29 µM)	50 (≈ 65.8 µM)	6.3 (≈ 8.29 µM)	–
